This note sets out measurements from patent US20220218630A1, “METHODS AND FORMULATIONS FOR TREATING VISION DISORDERS” (JeniVision Inc., priority 2019, published 2022).

The test system of data set [1] is monkey longitudinal ciliary muscle. Description: Isolated monkey longitudinal ciliary muscle preparation contracted by carbachol (tissue bath). Particulars: for contractile effects of a further application of carbachol following wash-out: after wash-out of drug, carbachol re-applied; for effect on ciliary muscle tone: drug added cumulatively 10^−8 M to 10^−5 M. The class given is cell-based. The method, then:
A total of 4 longitudinal strips of ciliary muscle were obtained from one monkey eye. Four tissue baths were used concurrently for each experiment. The monkey ciliary muscle preparations were incubated in Krebs bicarbonate buffer, aerated with 95% O2/5% CO2, containing 10^−6 M indomethacin. The preparations were placed under 200 mg tension with adjustment and allowed to equilibrate for 30 minutes. The temperature was maintained at 37° C. throughout the experiment. After equilibration, the four tissue baths received (50 μL×10^−3M) 10^−6 M carbachol (sufficient to produce a mid-level 40-60% maximal response). If 10^−6 M carbachol was insufficient to cause a meaningful contraction, then (50 μL×3×10^−3M) 3×10^−6 M or (50 μL×10^−2M) 10^−5M was used. The contractile response was allowed to become stable. Tissue tension was recorded on a multi-channel electrophysiological recorder.
When cumulative addition of the drug solutions was completed, the drugs were washed-out by flushing through with buffer three times at a selected volume. Four tissue baths again received 10^−6 M (or selected concentration) carbachol and a stable contractile response was established.

Data set [2] in a line: Ocular bioavailability following application to the periorbital skin of cynomolgus monkeys (LC/MS/MS). The class given is in vivo. Particulars: for tiotropium level in ciliary muscle / tiotropium level in plasma: 208 μg to periorbital skin of one eye. The procedure:
The animals were euthanized at predetermined time points post-dosing: 1, 2, 4, 24 hours. A blood sample and ocular tissue specimens were then taken and prepared for LC/MS/MS analysis.

The mark [3] stands for this setting: carbachol pre-contracted preparation.

In the case of `OCc1cc(C(O)CNCCCCCCOCCCCc2ccccc2)ccc1O` (stereo not shown) [salmeterol], the “contractile effects of a further application of carbachol following wash-out” value in data set [1] is reported as “blunted”. In addition, in data set [1] (setting [3]), the “effect on ciliary muscle tone” value is “dose-related decrease”. Moreover, in data set [2] (cynomolgus monkey, in vivo), the “access to the ciliary muscle” value was “pharmacologically active concentrations” and the systemic exposure entry is given as “absent”.
In the case of `C[N+]1(C)[C@@H]2C[C@@H](OC(=O)C(O)(c3cccs3)c3cccs3)C[C@H]1[C@@H]1O[C@@H]12` [tiotropium], the “contractile effects of a further application of carbachol following wash-out” value in data set [1] was “blunted”. Besides, the “effect on ciliary muscle tone” value in data set [1] (setting [3]) is “dose-related decrease”. The magnitude of relaxation result in data set [1] (carbachol pre-contracted preparation, tiotropium compared with salmeterol) is “greater than that recorded for salmeterol”. Further, the “tiotropium level in ciliary muscle” value in data set [2] (1 hr post-dosing) was 49 nM; in data set [2] (2 hr post-dosing) it was 77 nM; in data set [2] (4 hr post-dosing) it was 5.4 nM; in data set [2] (24 hr post-dosing), 0 nM. Also, the “tiotropium level in plasma” value is 4.5 nM in data set [2] (1 hr post-dosing), “BLQ” in data set [2] (2 hr post-dosing), “BLQ” in data set [2] (4 hr post-dosing) and “BLQ” in data set [2] (24 hr post-dosing). The systemic exposure entry in data set [2] (periorbital skin application, non-optimized aqueous formulations) is given as “minimal”.
